This note sets out measurements from patent publication US11214565B2, “Compound, compositions, and methods” (Denali Therapeutics Inc., priority 2015, dated 2022).

Bounds are passed on as bounds.

The assay deals with LRRK2 G2019S enzyme (Homo sapiens (Human), UniProt Q5S007, G2019S). Put plainly: LRRK2 G2019S TR-FRET biochemical kinase assay (LRRKtide substrate). The following applies: Table D-4; 5 nM LRRK2, 134 μM ATP, 60 minute reaction, 23° C. The procedure, abridged: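 5 nM LRRK2 G2019S preincubated 20 min with LRRKtide and compound (3.162-fold dilution series) in Tris pH 7.5, MgCl2, EGTA, Brij-35, DTT, then reacted 60 min at 23 °C with 134 μM ATP. EDTA-stopped; pLRRKtide antibody detection, TR-FRET read at 340 nm excitation, 520/490–495 nm emission.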
Sequence of LRRK2 G2019S enzyme (Q5S007 whole entry G2019S): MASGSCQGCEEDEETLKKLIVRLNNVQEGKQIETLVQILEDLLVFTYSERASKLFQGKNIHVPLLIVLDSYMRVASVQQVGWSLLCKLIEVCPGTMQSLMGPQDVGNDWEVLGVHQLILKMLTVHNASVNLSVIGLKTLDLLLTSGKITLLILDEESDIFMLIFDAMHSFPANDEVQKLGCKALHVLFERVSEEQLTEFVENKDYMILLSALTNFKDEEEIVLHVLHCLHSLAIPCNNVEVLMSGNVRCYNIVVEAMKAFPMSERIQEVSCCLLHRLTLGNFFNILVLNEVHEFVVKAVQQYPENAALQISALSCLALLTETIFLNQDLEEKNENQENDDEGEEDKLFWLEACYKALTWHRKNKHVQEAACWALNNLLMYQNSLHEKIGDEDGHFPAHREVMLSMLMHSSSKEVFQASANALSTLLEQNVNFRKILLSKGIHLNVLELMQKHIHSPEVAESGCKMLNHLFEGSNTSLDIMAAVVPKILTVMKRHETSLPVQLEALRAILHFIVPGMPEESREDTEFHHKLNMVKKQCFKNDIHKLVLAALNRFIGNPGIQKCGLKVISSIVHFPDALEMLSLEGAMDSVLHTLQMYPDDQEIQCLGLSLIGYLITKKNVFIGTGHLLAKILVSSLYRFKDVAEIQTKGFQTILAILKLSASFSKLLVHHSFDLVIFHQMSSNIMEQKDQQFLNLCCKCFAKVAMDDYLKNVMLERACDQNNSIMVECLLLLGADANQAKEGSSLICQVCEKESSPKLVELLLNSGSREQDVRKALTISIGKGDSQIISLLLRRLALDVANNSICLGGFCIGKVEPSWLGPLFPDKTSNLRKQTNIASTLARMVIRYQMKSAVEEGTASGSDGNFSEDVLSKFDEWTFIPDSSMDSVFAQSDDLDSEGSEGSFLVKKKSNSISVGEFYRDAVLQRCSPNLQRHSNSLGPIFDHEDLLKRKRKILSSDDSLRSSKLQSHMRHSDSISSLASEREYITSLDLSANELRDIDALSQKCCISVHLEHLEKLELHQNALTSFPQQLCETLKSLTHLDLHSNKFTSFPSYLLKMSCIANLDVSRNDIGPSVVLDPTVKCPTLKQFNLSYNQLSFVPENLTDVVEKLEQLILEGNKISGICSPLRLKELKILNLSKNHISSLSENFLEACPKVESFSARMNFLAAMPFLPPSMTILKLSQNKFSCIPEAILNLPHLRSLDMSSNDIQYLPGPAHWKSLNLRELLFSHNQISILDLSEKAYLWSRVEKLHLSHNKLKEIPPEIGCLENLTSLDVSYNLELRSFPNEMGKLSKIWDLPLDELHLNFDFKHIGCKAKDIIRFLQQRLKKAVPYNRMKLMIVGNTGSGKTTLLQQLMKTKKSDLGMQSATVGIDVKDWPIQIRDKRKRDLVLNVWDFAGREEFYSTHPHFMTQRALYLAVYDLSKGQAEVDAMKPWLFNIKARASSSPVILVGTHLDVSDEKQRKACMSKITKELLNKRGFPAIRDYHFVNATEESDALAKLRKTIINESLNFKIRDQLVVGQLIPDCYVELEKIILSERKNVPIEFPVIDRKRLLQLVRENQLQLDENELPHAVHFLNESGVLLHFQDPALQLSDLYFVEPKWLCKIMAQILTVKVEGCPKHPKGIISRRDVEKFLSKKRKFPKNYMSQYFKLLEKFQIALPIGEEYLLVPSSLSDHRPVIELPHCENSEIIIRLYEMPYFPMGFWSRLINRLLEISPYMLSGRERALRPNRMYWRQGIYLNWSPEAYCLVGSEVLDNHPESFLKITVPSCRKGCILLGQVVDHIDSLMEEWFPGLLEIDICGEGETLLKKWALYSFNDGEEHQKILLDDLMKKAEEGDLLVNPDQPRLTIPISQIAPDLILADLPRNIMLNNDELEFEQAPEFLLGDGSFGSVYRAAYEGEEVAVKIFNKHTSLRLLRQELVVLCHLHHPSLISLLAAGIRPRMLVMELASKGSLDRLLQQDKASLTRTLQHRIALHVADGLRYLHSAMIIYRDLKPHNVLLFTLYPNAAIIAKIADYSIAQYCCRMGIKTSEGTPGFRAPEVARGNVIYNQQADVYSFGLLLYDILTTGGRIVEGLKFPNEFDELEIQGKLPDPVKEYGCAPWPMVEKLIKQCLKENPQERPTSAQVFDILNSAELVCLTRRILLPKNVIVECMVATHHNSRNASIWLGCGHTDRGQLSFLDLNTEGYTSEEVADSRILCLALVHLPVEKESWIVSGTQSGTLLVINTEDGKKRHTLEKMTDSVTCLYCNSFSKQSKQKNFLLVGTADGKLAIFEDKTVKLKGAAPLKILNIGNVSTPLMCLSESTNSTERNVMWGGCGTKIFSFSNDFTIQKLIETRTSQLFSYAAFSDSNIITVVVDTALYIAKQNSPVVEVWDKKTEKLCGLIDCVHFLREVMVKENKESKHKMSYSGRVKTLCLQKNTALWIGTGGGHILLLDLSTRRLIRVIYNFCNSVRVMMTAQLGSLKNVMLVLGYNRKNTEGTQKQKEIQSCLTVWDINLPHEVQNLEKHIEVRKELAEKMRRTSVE
Broadly, the IC50 is the midpoint of a concentration-inhibition curve. Low values mean greater potency in that assay, high ones weaker potency in that assay. Consider `CCNc1nc(Nc2cn([C@H]3Cc4nccn4C3)nc2C)ncc1C(F)(F)F` [Compounds D-163], for which the IC50 is < 30 nM. The same measure for `CNc1nc(Nc2cnn([C@H]3CCn4cncc43)c2C)ncc1C(F)(F)F` [Compounds D-166]: < 30 nM. With `CCNc1nc(Nc2cnn([C@H]3CCCn4ccnc43)c2C)ncc1C(F)(F)F` [Compounds D-170], the IC50 was < 30 nM. With `CCNc1nc(Nc2cnn([C@H]3CCc4c(C)noc43)c2C)ncc1C(F)(F)F` [Compounds D-171] the figure was < 30 nM. For the compound `CCNc1nc(Nc2cnn([C@H]3CCn4ccnc43)c2C)ncc1C(F)(F)F` [Compounds D-172], the IC50 was < 30 nM. As to `CNc1nc(Nc2cnn([C@@H]3CCc4c(C)noc43)c2C)ncc1C(F)(F)F` [Compounds D-173], the IC50 was > 60 nM. The same measure for `CNc1nc(Nc2cnn([C@H]3CCC(n4ccnn4)C3)c2C)ncc1C(F)(F)F` (stereo partly drawn) [Compounds D-175]: < 30 nM; for `CNc1nc(Nc2cn(C3(C)CCn4ccnc43)nc2C)ncc1C(F)(F)F` [Compounds D-188]: > 60 nM; for `CNc1nc(Nc2cn(C3(C)CCn4ccnc43)nc2C)ncc1C(F)(F)F` [Compounds D-189]: < 30 nM. With `CNc1nc(Nc2cnn([C@](C)(C#N)CF)c2C)ncc1C(F)(F)F` [Compounds D-190], the IC50 was < 30 nM.

For the compound `CNc1nc(Nc2cnn([C@@](C)(C#N)CF)c2C)ncc1C(F)(F)F` [Compounds D-191], the IC50 is < 30 nM.

With `CNc1nc(Nc2cnn([C@](C)(C#N)C(F)F)c2C)ncc1C(F)(F)F` [Compounds D-199], the IC50 was < 30 nM.

For `CNc1nc(Nc2cnn([C@@](C)(C#N)C(F)F)c2C)ncc1C(F)(F)F` [Compounds D-200], the IC50 is < 30 nM. `Cc1c(Nc2ncc(C(F)(F)F)c(NC3CC3)n2)cnn1[C@](C)(C#N)CF` [Compounds D-201]: the IC50 was < 30 nM. The same measure for `Cc1c(Nc2ncc(C(F)(F)F)c(NC3CC3)n2)cnn1C(C)(C#N)CF` [Compounds D-202]: < 30 nM; for `CCNc1nc(Nc2cnn([C@@]3(C)CCn4ccnc43)c2C)ncc1C(F)(F)F` [Compounds D-205]: > 60 nM; for `CCNc1nc(Nc2cnn([C@]3(C)CCn4ccnc43)c2C)ncc1C(F)(F)F` [Compounds D-206]: < 30 nM.
